{"source": "paper PMC9144433", "about": "“The Effect of Standardised Leaf Extracts of Gaultheria procumbens on Multiple Oxidants, Inflammation-Related Enzymes, and Pro-Oxidant and Pro-Inflammatory Functions of Human Neutrophils” (Molecules, 2022)", "key": {"hyaluronidase (HYAL)": {"biological_target": "T1, hyaluronidase (HYAL)", "T1 construct": "gene SPAM1; reagents from Sigma-Aldrich; bovine testes preparation is usual", "assay": "HYAL inhibition, 96-well plate reader", "type": "biochemical", "settings": "positive control; n = […]", "text": "HYAL inhibition, 96-well plate reader on hyaluronidase (HYAL)"}, "lipoxygenase (LOX)": {"biological_target": "T2, lipoxygenase (LOX)", "T2 construct": "gene LOX1.1; reagents from Sigma-Aldrich; soybean enzyme is usual", "assay": "LOX inhibition, 96-well plate reader", "type": "biochemical", "settings": "positive control; n = […]"}}, "data": [{"smiles": "C[C@@H]1C[C@H]2[C@@H]3CCC4=CC(=O)C=C[C@]4(C)[C@@]3(F)[C@@H](O)C[C@]2(C)[C@@]1(O)C(=O)CO", "note": "[DEX]", "values": [{"measurement": "HYAL / IC50 (μg/mL) ^a", "setting": "hyaluronidase (HYAL)", "result": "14.07 ± 1.25", "unit": "µg/mL"}, {"measurement": "LOX / IC50 (μg/mL) ^a", "setting": "lipoxygenase (LOX)", "result": "120.16 ± 4.86", "unit": "µg/mL"}]}, {"smiles": "COc1ccc2c(c1)c(CC(=O)O)c(C)n2C(=O)c1ccc(Cl)cc1", "note": "[IND]", "values": [{"measurement": "HYAL / IC50 (μg/mL) ^a", "setting": "hyaluronidase (HYAL)", "result": "12.68 ± 1.79", "unit": "µg/mL"}, {"measurement": "LOX / IC50 (μg/mL) ^a", "setting": "lipoxygenase (LOX)", "result": "91.89 ± 3.95", "unit": "µg/mL"}]}, {"smiles": "O=c1c(O)c(-c2ccc(O)c(O)c2)oc2cc(O)cc(O)c12", "note": "[compound 41, QU]", "values": [{"measurement": "HYAL / IC50 (μg/mL) ^a", "setting": "hyaluronidase (HYAL)", "result": "31.78 ± 1.52", "unit": "µg/mL"}]}]}
